PubChem BioAssay AID248 (DTP/NCI, 2004)
Several values for one entry are separate records, joined by “and”; a condition that tells them apart may be missing. Identical values can stand only once. Inconclusive results and toxic doses are left out. No stated cut-off is given here; in the data, active means T/C of 150% or more; inactive means T/C below 125%.

System: L1210 leukemia ip in BDF1 mice, survival T/C
Assay: NCI In Vivo Anticancer Drug Screen. Data for tumor model L1210 Leukemia (intraperitoneal) in B6D2F1 (BDF1) mice
Details: endpoint: mean survival time, higher = longer survival
Procedure, shortened: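 Transplantable tumor model; survival measured in treated vs vehicle control mice. Value = treated/control.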

[1] = dose: 100.0 mg/kg/injection, schedule: Q01DX001 (ip), vehicle: Klucel (hydroxypropylcellulose) (HPC)
[2] = dose: 100.0 mg/kg/injection, schedule: Q04DX003 (ip), vehicle: saline with Tween-80
[3] = dose: 200.0 mg/kg/injection, schedule: Q04DX003 (ip), vehicle: saline with Tween-80
[4] = dose: 200.0 mg/kg/injection, schedule: Q01DX001 (ip), vehicle: Klucel (hydroxypropylcellulose) (HPC)
[5] = dose: 100.0 mg/kg/injection, schedule: Q01DX009 (ip), vehicle: Klucel (hydroxypropylcellulose) (HPC)
[6] = dose: 200.0 mg/kg/injection, schedule: Q01DX009 (ip), vehicle: Klucel (hydroxypropylcellulose) (HPC)
[7] = dose: 400.0 mg/kg/injection, schedule: Q01DX009 (ip), vehicle: Klucel (hydroxypropylcellulose) (HPC)
[8] = dose: 100.0 mg/kg/injection, schedule: Q01DX009 (ip), vehicle: saline with Tween-80
[9] = dose: 200.0 mg/kg/injection, schedule: Q01DX009 (ip), vehicle: saline with Tween-80
[10] = dose: 100.0 mg/kg/injection, schedule: Q01DX001 (ip), vehicle: saline
[11] = dose: 200.0 mg/kg/injection, schedule: Q01DX001 (ip), vehicle: saline
[12] = dose: 400.0 mg/kg/injection, schedule: Q01DX001 (ip), vehicle: saline
[13] = dose: 100.0 mg/kg/injection, schedule: Q01DX009 (ip), vehicle: saline
[14] = dose: 100.0 mg/kg/injection, schedule: Q04DX003 (ip), vehicle: saline
[15] = dose: 200.0 mg/kg/injection, schedule: Q04DX003 (ip), vehicle: saline
[16] = dose: 400.0 mg/kg/injection, schedule: Q04DX003 (ip), vehicle: saline
[17] = dose: 100.0 mg/kg/injection, schedule: Q04DX003 (ip), vehicle: Klucel (hydroxypropylcellulose) (HPC)
[18] = dose: 200.0 mg/kg/injection, schedule: Q04DX003 (ip), vehicle: Klucel (hydroxypropylcellulose) (HPC)
[19] = dose: 400.0 mg/kg/injection, schedule: Q04DX003 (ip), vehicle: Klucel (hydroxypropylcellulose) (HPC)
[20] = dose: 50.0 mg/kg/injection, schedule: Q04DX003 (ip), vehicle: saline
[21] = dose: 400.0 mg/kg/injection, schedule: Q04DX003 (ip), vehicle: saline with Tween-80
[22] = dose: 100.0 mg/kg/injection, schedule: Q04DX002 (ip), vehicle: Klucel (hydroxypropylcellulose) (HPC)
[23] = dose: 200.0 mg/kg/injection, schedule: Q04DX002 (ip), vehicle: Klucel (hydroxypropylcellulose) (HPC)
[24] = dose: 400.0 mg/kg/injection, schedule: Q04DX002 (ip), vehicle: Klucel (hydroxypropylcellulose) (HPC)

Measured: T/C

COc1ccc2c(ccc3nc(C)[nH]c(=O)c32)c1
inactive: [1] 91 % of control

CC(=O)OCC(OC(C)=O)C(OC(C)=O)C(C#N)OC(C)=O (stereo unspecified)
inactive: dose: 12.5 mg/kg/injection, schedule: Q01DX009 (ip), vehicle: Klucel (hydroxypropylcellulose) (HPC) 95 % of control | dose: 12.5 mg/kg/injection, schedule: Q04DX003 (ip), vehicle: Klucel (hydroxypropylcellulose) (HPC) 102 % of control | dose: 25.0 mg/kg/injection, schedule: Q01DX009 (ip), vehicle: Klucel (hydroxypropylcellulose) (HPC) 95 % of control | dose: 25.0 mg/kg/injection, schedule: Q04DX003 (ip), vehicle: Klucel (hydroxypropylcellulose) (HPC) 96 % of control | dose: 50.0 mg/kg/injection, schedule: Q01DX009 (ip), vehicle: Klucel (hydroxypropylcellulose) (HPC) 102 % of control | dose: 50.0 mg/kg/injection, schedule: Q04DX003 (ip), vehicle: Klucel (hydroxypropylcellulose) (HPC) 102 % of control | [2] 102 % of control | [3] 102 % of control

CCOC(=O)/C=C(/Nc1ccc(S(=O)(=O)F)cc1)c1ccccc1
inactive: [1] 104 % of control | [4] 100 % of control | dose: 400.0 mg/kg/injection, schedule: Q01DX001 (ip), vehicle: Klucel (hydroxypropylcellulose) (HPC) 98 % of control

CCSc1nc(N)c(Br)c(Sc2nc(N)nc3nc[nH]c23)n1
inactive: dose: 100.0 mg/kg/injection, schedule: Q01DX Z (ip), vehicle: methylcellulose (MC) 98 % of control

COc1cc(C=O)ccc1OC(=O)Nc1cc([N+](=O)[O-])ccc1F
inactive: [5] 97 % of control | [6] 93 % of control | [7] 92 % of control

CCCCCCCCC1SC1CCCCCCCC(=O)OCCCOC(=O)CCCCCCCC1SC1CCCCCCCC (stereo unspecified)
inactive: [8] 98 % of control | [9] 93 % of control | dose: 400.0 mg/kg/injection, schedule: Q01DX009 (ip), vehicle: saline with Tween-80 96 % of control

NS(=O)(=O)c1ccc(NC(=O)Nc2cccc(CNC(=O)Cc3ccc(Cl)cc3C(=O)O)c2)cc1
inactive: dose: 50.0 mg/kg/injection, schedule: Q01DX001 (ip), vehicle: Klucel (hydroxypropylcellulose) (HPC) 104 % of control | [1] 109 % of control | [4] 90 % of control

CNS(=O)(=O)c1ccccc1C(O)(c1ccccc1)c1ccccc1
inactive: [10] 94 % of control | [11] 100 % of control | [12] 111 % of control

Cc1cc(O)c2c(c1)OC(C)(C)C1=C2CC(C)CC1 (stereo unspecified)
inactive: dose: 75.0 mg/kg/injection, schedule: Q01DX009 (ip), vehicle: Klucel (hydroxypropylcellulose) (HPC) 96 % of control | dose: 150.0 mg/kg/injection, schedule: Q01DX009 (ip), vehicle: Klucel (hydroxypropylcellulose) (HPC) 92 % of control | dose: 300.0 mg/kg/injection, schedule: Q01DX009 (ip), vehicle: Klucel (hydroxypropylcellulose) (HPC) 101 % of control

Cc1ccc(C(=O)O)cn1
inactive: [13] 97 % of control | [14] 97 % of control | dose: 200.0 mg/kg/injection, schedule: Q01DX009 (ip), vehicle: saline 98 % of control | [15] 113 % of control | dose: 400.0 mg/kg/injection, schedule: Q01DX009 (ip), vehicle: saline 97 % of control | [16] 105 % of control

Oc1ccc(Br)cc1/C=N/c1nc(-c2ccccc2)cs1.Oc1ccc(Br)cc1/C=N/c1nc(-c2ccccc2)cs1.[Zn]
inactive: [10] 86 % of control

CCCCCCOC(=O)Nc1ccc(S(=O)(=O)NC2CCCCC2)cc1
inactive: [10] 94 % of control | [11] 90 % of control | [12] 95 % of control

CS(=O)(=O)c1ccc(F)cc1
inactive: [17] 103 % of control | [18] 103 % of control | [19] 97 % of control

O=C(N/N=C/c1cc(Cl)ccc1O)C(O)(c1ccccc1)c1ccccc1
inactive: dose: 100.0 mg/kg/injection, schedule: Q01DX001 (ip), vehicle: carboxymethylcellulose (CMC) 106 % of control | dose: 200.0 mg/kg/injection, schedule: Q01DX001 (ip), vehicle: carboxymethylcellulose (CMC) 97 % of control | dose: 400.0 mg/kg/injection, schedule: Q01DX001 (ip), vehicle: carboxymethylcellulose (CMC) 101 % of control

COc1cc2ccc3cc[n+](C)cc3c2cc1OC
inactive: [20] 104 % of control | dose: 66.0 mg/kg/injection, schedule: Q01DX009 (ip), vehicle: saline 121 % of control | [13] 110 % of control | [14] 98 % of control and 104 % of control | dose: 150.0 mg/kg/injection, schedule: Q01DX009 (ip), vehicle: saline 96 % of control | [15] 110 % of control | [16] 102 % of control

Cn1ncc2c(Cl)ncnc21
inactive: dose: 100.0 mg/kg/injection, schedule: Q01DX001 (ip), vehicle: other 113 % of control | dose: 200.0 mg/kg/injection, schedule: Q01DX001 (ip), vehicle: other 94 % of control | dose: 400.0 mg/kg/injection, schedule: Q01DX001 (ip), vehicle: other 102 % of control

CSc1ncnc2c1ncn2-n1c(C)ccc1C
inactive: dose: 100.0 mg/kg/injection, schedule: Q01DX001 (ip), vehicle: saline with Tween-80 89 % of control | [2] 96 % of control | dose: 200.0 mg/kg/injection, schedule: Q01DX001 (ip), vehicle: saline with Tween-80 90 % of control | [3] 94 % of control | dose: 400.0 mg/kg/injection, schedule: Q01DX001 (ip), vehicle: saline with Tween-80 93 % of control | [21] 93 % of control

COc1ccc(C(CCCC(=O)O)c2ccc(OC)cc2)cc1
inactive: [10] 112 % of control | [11] 104 % of control | [12] 104 % of control

NCC1OC(n2ccc(=O)[nH]c2=O)CC1O (stereo unspecified)
inactive: dose: 25.0 mg/kg/injection, schedule: Q04DX002 (ip), vehicle: saline 93 % of control | dose: 50.0 mg/kg/injection, schedule: Q04DX002 (ip), vehicle: saline 101 % of control | dose: 100.0 mg/kg/injection, schedule: Q04DX002 (ip), vehicle: saline 108 % of control

CCCNC(=O)Nc1ccccc1OC
inactive: [22] 97 % of control | [23] 87 % of control | [24] 94 % of control

Cc1ccc(S(=O)(=O)N(C)C)cc1N
inactive: dose: 50.0 mg/kg/injection, schedule: Q01DX009 (ip), vehicle: saline with Tween-80 105 % of control | [8] 98 % of control | [2] 107 % of control | [9] 96 % of control | [3] 97 % of control | [21] 102 % of control

Cc1ccccc1-n1c(C)cc(C(=O)O)c1C
inactive: [5] 110 % of control | [17] 102 % of control | [6] 93 % of control | [18] 106 % of control | [7] 98 % of control | [19] 88 % of control

CCCCCCCC(=O)NCCCC
inactive: [5] 105 % of control | [14] 99 % of control | [6] 95 % of control | [15] 101 % of control | [7] 109 % of control | [16] 99 % of control

CN=C1N[N+]2=C(C)CSCC2(C)S1 (stereo unspecified)
inactive: [14] 98 % of control | [15] 98 % of control | [16] 89 % of control

Cn1c(=O)c2ccc(C(=O)O)cc2c(=O)n1C
inactive: dose: 12.5 mg/kg/injection, schedule: Q04DX003 (ip), vehicle: saline 97 % of control | dose: 25.0 mg/kg/injection, schedule: Q04DX003 (ip), vehicle: saline 98 % of control | [20] 103 % of control | [14] 106 % of control | [15] 92 % of control | [16] 98 % of control

CN(C)C/C(=C\c1ccccc1)C(=O)c1ccccc1
inactive: dose: 100.0 mg/kg/injection, schedule: Q04DX003 (ip), vehicle: other 98 % of control

CC(C)(C)C1=NN=C(C(C)(C)C)CS(=O)C1
inactive: [22] 90 % of control | [23] 97 % of control | [24] 101 % of control

Cc1cccc(C)c1C1CC1S(=O)(=O)c1ccccc1 (stereo unspecified)
inactive: [10] 101 % of control | [14] 100 % of control | [11] 98 % of control | [15] 94 % of control | [12] 111 % of control | [16] 104 % of control
